Measured values as given in ChEMBL document CHEMBL5096210, “Discovery of Betulinic Acid Derivatives as Potent Intestinal Farnesoid X Receptor Antagonists to Ameliorate Nonalcoholic Steatohepatitis” (J Med Chem, 2022).

Key:
Bile acid receptor = biological target: T1, Bile acid receptor (Homo sapiens, UniProt Q96RI1); experiment: Antagonist activity at FXR (unknown origin) expressed in HEK293T cells cotransfected with pCMV-Script-hFXR/pGL4.11-hSHP-Luciferase incubated for 24 hrs in presence of GW4064 by Steady-glo luciferase assay; assay type: cell-based
T1 sequence (Q96RI1 whole entry): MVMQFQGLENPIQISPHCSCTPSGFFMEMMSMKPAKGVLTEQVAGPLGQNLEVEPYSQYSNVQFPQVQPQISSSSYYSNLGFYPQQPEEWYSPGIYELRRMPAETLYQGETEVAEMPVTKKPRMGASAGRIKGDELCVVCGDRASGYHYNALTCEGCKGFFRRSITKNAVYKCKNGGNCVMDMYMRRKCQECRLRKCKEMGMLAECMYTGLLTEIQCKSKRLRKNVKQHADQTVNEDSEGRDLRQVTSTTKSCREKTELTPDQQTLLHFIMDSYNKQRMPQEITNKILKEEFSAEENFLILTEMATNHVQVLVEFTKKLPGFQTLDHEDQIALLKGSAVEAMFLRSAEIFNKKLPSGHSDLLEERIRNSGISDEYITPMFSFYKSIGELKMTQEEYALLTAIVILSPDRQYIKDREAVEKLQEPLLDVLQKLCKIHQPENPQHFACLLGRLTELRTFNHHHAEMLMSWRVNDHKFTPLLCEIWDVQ

[1] = Cytotoxicity against HEK293T cells cotransfected with pCMV-Script-hFXR/pGL4.11-hSHP-Luciferase incubated for 24 hrs in presence of GW4064 by celltiter-blue cell viability assay; assay type: toxicity, cell-based, HEK-293T; conditions: human

Row | SMILES | IC50 (Bile acid receptor) | IC50 at 24 h [1]
1 | CCCC(=O)O[C@@H]1CC[C@]2(C)[C@H]3CC[C@@H]4[C@H]5[C@H](C(C)C)CC[C@]5(C(=O)NCCS(=O)(=O)O)CC[C@@]4(C)[C@]3(C)CC[C@H]2C1(C)C | > 100 µM | > 100 µM
2 | CCNS(=O)(=O)O[C@@H]1CC[C@]2(C)[C@H]3CC[C@@H]4[C@H]5[C@H](C(C)C)CC[C@]5(C(=O)NCC(=O)O)CC[C@@]4(C)[C@]3(C)CC[C@H]2C1(C)C |  | > 100 µM
3 | CCCCC(=O)O[C@@H]1CC[C@]2(C)[C@H]3CC[C@@H]4[C@H]5[C@H](C(C)C)CC[C@]5(C(=O)NCC(=O)O)CC[C@@]4(C)[C@]3(C)CC[C@H]2C1(C)C | 3 µM | > 100 µM
4 | CC(C)[C@@H]1CC[C@]2(C(=O)NCC(=O)O)CC[C@]3(C)[C@H](CC[C@@H]4[C@@]5(C)CC[C@@H](OC(=O)C6CCCC6)C(C)(C)[C@@H]5CC[C@]43C)[C@@H]12 | 1.6 µM | 2 µM
5 | CCCS(=O)(=O)O[C@@H]1CC[C@]2(C)[C@H]3CC[C@@H]4[C@H]5[C@H](C(C)C)CC[C@]5(C(=O)NCC(=O)O)CC[C@@]4(C)[C@]3(C)CC[C@H]2C1(C)C | 14 µM | > 100 µM
6 | CCNC(=O)O[C@@H]1CC[C@]2(C)[C@H]3CC[C@@H]4[C@H]5[C@H](C(C)C)CC[C@]5(C(=O)NCC(=O)O)CC[C@@]4(C)[C@]3(C)CC[C@H]2C1(C)C | 3.4 µM | 56 µM
7 | CC(C)[C@@H]1CC[C@]2(C(=O)NCC(=O)O)CC[C@]3(C)[C@H](CC[C@@H]4[C@@]5(C)CC[C@@H](OC(=O)C6CCC6)C(C)(C)[C@@H]5CC[C@]43C)[C@@H]12 | 4.1 µM | > 100 µM
8 | CC(C)C(=O)O[C@@H]1CC[C@]2(C)[C@H]3CC[C@@H]4[C@H]5[C@H](C(C)C)CC[C@]5(C(=O)NCC(=O)O)CC[C@@]4(C)[C@]3(C)CC[C@H]2C1(C)C | 4.6 µM | > 100 µM
9 | CCCC(=O)O[C@@H]1CC[C@]2(C)[C@H]3CC[C@@H]4[C@H]5[C@H](C(C)C)CC[C@]5(C(=O)OCC(=O)O)CC[C@@]4(C)[C@]3(C)CC[C@H]2C1(C)C | 1.9 µM | 29.2 µM
10 | CCCC(=O)O[C@@H]1CC[C@]2(C)[C@H]3CC[C@@H]4[C@H]5[C@H](C(=O)CO)CC[C@]5(C(=O)NCC(=O)O)CC[C@@]4(C)[C@]3(C)CC[C@H]2C1(C)C |  | 25.3 µM
11 | CCOC(=O)O[C@@H]1CC[C@]2(C)[C@H]3CC[C@@H]4[C@H]5[C@H](C(C)C)CC[C@]5(C(=O)NCC(=O)O)CC[C@@]4(C)[C@]3(C)CC[C@H]2C1(C)C | 7.3 µM | > 100 µM
12 | CCCC(=O)O[C@H]1CC[C@]2(C)[C@H]3CC[C@@H]4[C@H]5[C@H](C(C)C)CC[C@]5(C(=O)NCC(=O)O)CC[C@@]4(C)[C@]3(C)CC[C@H]2C1(C)C | 13 µM | > 100 µM
13 | CCC(=O)O[C@@H]1CC[C@]2(C)[C@H]3CC[C@@H]4[C@H]5[C@H](C(C)C)CC[C@]5(C(=O)NCC(=O)O)CC[C@@]4(C)[C@]3(C)CC[C@H]2C1(C)C | 9.1 µM | > 100 µM
14 | CCCC(=O)O[C@@H]1CC[C@]2(C)[C@H]3CC[C@@H]4[C@H]5[C@H](C(C)C)CC[C@]5(C(=O)NCCC(=O)O)CC[C@@]4(C)[C@]3(C)CC[C@H]2C1(C)C | 9.9 µM | > 100 µM
15 | COc1ccc(C(=O)O[C@@H]2CC[C@]3(C)[C@H]4CC[C@@H]5[C@H]6[C@H](C(C)C)CC[C@]6(C(=O)NCC(=O)O)CC[C@@]5(C)[C@]4(C)CC[C@H]3C2(C)C)cc1 | 4.1 µM | > 100 µM
16 | CC(C)[C@@H]1CC[C@]2(C(=O)O)CC[C@@H]3[C@H](CC[C@H]4[C@@]3(C)CC[C@H]3C(C)(C)[C@H](O)CC[C@]43C)[C@@H]12 | 7.9 µM | 61.7 µM
17 | CCCC(=O)O[C@@H]1CC[C@]2(C)[C@H]3CC[C@@H]4[C@H]5[C@H]([C@@H](C)CO)CC[C@]5(C(=O)NCC(=O)O)CC[C@@]4(C)[C@]3(C)CC[C@H]2C1(C)C | 14.1 µM | > 100 µM
18 | CCCC(=O)O[C@@H]1CC[C@]2(C)[C@H]3CC[C@@H]4[C@H]5[C@H](C(C)C)CC[C@]5(C(=O)NCC(=O)NS(C)(=O)=O)CC[C@@]4(C)[C@]3(C)CC[C@H]2C1(C)C | 12.1 µM | > 100 µM
19 | CC(C)[C@@H]1CC[C@]2(C(=O)NCC(=O)O)CC[C@]3(C)[C@H](CC[C@@H]4[C@@]5(C)CC[C@@H](OC(=O)C6CC6)C(C)(C)[C@@H]5CC[C@]43C)[C@@H]12 | 10 µM | > 100 µM
20 | CCCC(=O)O[C@@H]1CC[C@]2(C)[C@H]3CC[C@@H]4[C@H]5[C@H](C(C)C)CC[C@]5(C(=O)N[C@@H](C)C(=O)O)CC[C@@]4(C)[C@]3(C)CC[C@H]2C1(C)C |  | 37.7 µM
21 | CCCC(=O)O[C@@H]1CC[C@]2(C)[C@H]3CC[C@@H]4[C@H]5[C@H](C(C)C)CC[C@]5(NC(=O)OCC(=O)O)CC[C@@]4(C)[C@]3(C)CC[C@H]2C1(C)C | 0.9 µM | 1 µM
22 | CCCC(=O)O[C@@H]1CC[C@]2(C)[C@H]3CC[C@@H]4[C@H]5[C@H]([C@@H](C)C(=O)O)CC[C@]5(C(=O)NCC(=O)O)CC[C@@]4(C)[C@]3(C)CC[C@H]2C1(C)C | 25.7 µM | 97.2 µM
23 | CC(C)[C@@H]1CC[C@]2(C(=O)NCC(=O)O)CC[C@]3(C)[C@H](CC[C@@H]4[C@@]5(C)CC[C@@H](OC(=O)c6ccccc6)C(C)(C)[C@@H]5CC[C@]43C)[C@@H]12 | 1.1 µM | 35 µM
24 | CCCC(=O)O[C@@H]1CC[C@]2(C)[C@H]3CC[C@@H]4[C@H]5[C@H](C(C)=O)CC[C@]5(C(=O)NCC(=O)O)CC[C@@]4(C)[C@]3(C)CC[C@H]2C1(C)C | 10 µM | 44.3 µM
25 | CC(C)[C@@H]1CC[C@]2(C(=O)NCC(=O)O)CC[C@]3(C)[C@H](CC[C@@H]4[C@@]5(C)CC[C@@H](OC(=O)c6ccco6)C(C)(C)[C@@H]5CC[C@]43C)[C@@H]12 | > 100 µM | > 100 µM
26 | CCCC(=O)O[C@@H]1CC[C@]2(C)[C@H]3CC[C@@H]4[C@H]5[C@H](C(C)C)CC[C@]5(NC(=O)NCC(=O)O)CC[C@@]4(C)[C@]3(C)CC[C@H]2C1(C)C | 1.1 µM | 1.3 µM
27 | CC(C)[C@@H]1CC[C@]2(C(=O)NCC(=O)O)CC[C@]3(C)[C@H](CC[C@@H]4[C@@]5(C)CC[C@@H](OC(=O)c6ccc(F)cc6)C(C)(C)[C@@H]5CC[C@]43C)[C@@H]12 |  | 55.7 µM
